# According to paper doi:10.1101/2024.07.22.604525v1 (bioRxiv, 2024):
# Read-outs that look alike come from different tables or passages of the source. Where a SMILES comes first, the peptide text is derived from it.
# Legend:
# C57BL/6J male SPF mice = assay: Preliminary safety evaluation in mice; type: in vivo; settings: 10 mg/kg and 100 mg/kg, gavage 3 times per week, 4 weeks, n = 6 mice/group
# HFD-fed mice [1] = type: in vivo; settings: 8 weeks
# A. muciniphila = type: in vivo; settings: HFD-fed mice, VAMP 50 mg/kg oral gavage, 8 weeks; colonic contents, 16S rRNA
# ob/ob mice = assay: ob/ob mice, VAMP for 4 weeks; type: in vivo; settings: VAMP 50 mg/kg daily oral gavage, n = 6
# HFD-fed mice [2] = assay: HFD-fed obese mice, VAMP for 1 week; type: in vivo; settings: HFD 8 weeks, then VAMP 50 mg/kg daily for 1 week, vs vehicle, n = 6
# [3] = test system: other strains of Bacteroides; assay: Single-strain growth in culture; type: cell-based; settings: VAMP 50 μM vs PBS, anaerobic, 48 h, OD600 ratio
# HFD-induced obese mice = assay: HFD-induced obese mice, VAMP and/or benzydamine for 4 weeks; type: in vivo; settings: HFD 8 weeks, then VAMP 50 mg/kg three times per week for 4 weeks, n = 6
# HFD-fed mice [4] = assay: HFD-fed mice, TPH or sitagliptin for 8 weeks; type: in vivo; settings: sitagliptin 12.5 mg/kg daily oral gavage
# [5] = HFD plus VAMP 50 mg/kg daily oral gavage, vs HFD-fed control
# [6] = HFD plus VAMP 50 mg/kg daily oral gavage, vs vehicle, n = 6
compound,measurement,setting,value
CSCC[C@H](NC(=O)[C@H](C)NC(=O)[C@@H](N)C(C)C)C(=O)N1CCC[C@H]1C(=O)O [VAMP] (H-VAMP-OH; N-terminus and C-terminus assumed),"side effects in mice (body weight, food intake, ALT, AST, UREA, CRE)",C57BL/6J male SPF mice,did not induce any obvious side effects
same,thickness of colonic mucus layer,"HFD-fed mice [1]; Alcian blue-stained sections, HFD plus VAMP 50 mg/kg",increased thickness of mucus layer
same,plasma IL-1β level,HFD-fed mice [1]; [5],significantly reduced
same,plasma TNF-α level,HFD-fed mice [1]; [5],significantly reduced
same,plasma endotoxin (LPS) level,HFD-fed mice [1]; [5],significantly reduced
same,fat weight/body weight ratio,"HFD-fed mice [1]; HFD plus VAMP 50 mg/kg daily oral gavage, vs vehicle",significantly decreased
same,size of adipocytes in white adipose tissue,"HFD-fed mice [1]; HFD plus VAMP 50 mg/kg daily oral gavage, vs vehicle, 3 mice per group",significantly decreased
same,FBG,HFD-fed mice [1]; [6],significantly decreased
same,body weight,HFD-fed mice [1]; [6],significantly decreased
same,fasting insulin level,HFD-fed mice [1]; [6],decreased fasting insulin levels
same,glucose tolerance (OGTT),HFD-fed mice [1]; [6],improved glucose tolerance
same,intestinal active GLP-1 level,HFD-fed mice [1]; [6],significantly increased
same,intestinal total GLP-1 level,HFD-fed mice [1]; [6],without affecting
same,plasma active GLP-1 level,HFD-fed mice [1]; [6],significantly increased
same,plasma total GLP-1 level,HFD-fed mice [1]; [6],without affecting
same,"expression of intestinal Tjp1, Ocln, Cldn3, and Muc2","HFD-fed mice [1]; colonic tissue mRNA, RT-qPCR, HFD plus VAMP 50 mg/kg",upregulate
same,abundance of Akkermansia (genus level),A. muciniphila,significantly increased
same,FBG,ob/ob mice,steadily decreased
same,body weight,ob/ob mice,no significant difference
same,energy intake,ob/ob mice,no significant difference
same,intestinal DPP-IV activity,ob/ob mice,suppressed intestinal DPP-IV activity
same,intestinal active GLP-1 level,ob/ob mice,increased the levels
same,plasma active GLP-1 level,ob/ob mice,increased the levels
same,energy intake,HFD-fed mice [2],no significant differences
same,plasma active GLP-1 level,HFD-fed mice [2],increased
same,plasma total GLP-1 level,HFD-fed mice [2],without altering
same,growth of other strains of Bacteroides,[3],failed to stimulate the growth
same,body weight,HFD-induced obese mice,significantly decreased
"N[C@@H](CC(=O)N1CCn2c(nnc2C(F)(F)F)C1)Cc1cc(F)c(F)cc1F [sitagliptin, Sitagliptin]",glucose metabolism in obese mice,HFD-fed mice [4],effectively improved glucose metabolism
